Measurements: US11999782B2, “Therapeutic agents for the treatment of diseases associated with undesired cell proliferation” (Fundació Privada Institutció Catalana de Recerca I Estudis …, priority 2009, dated 2024)

Columns and labels:
[1] = test system: LIF expression in mouse neuroprogenitors; experiment: LIF induction in mouse neuroprogenitors; assay type: cell-based; conditions: from mouse embryos or the subventricular area of adult mice; data not shown
[2] = test system: LIF protein secretion; experiment: Secreted LIF protein by ELISA in GBM1 neurospheres; assay type: cell-based, human; conditions: 48 hours, 100 pM TGFβ1
Protocol: FIG. 3. TGFβ induces the expression of LIF in PCTC and GBM neurospheres. (A) PCTC cells of the 11 samples of the indicated GEM (GBM1-11) were treated with 100 pM TGFβ1 for 3 hours in medium without serum or left untreated, and the expression levels of LIF were determined by means of qRT-PCR. The g-actin was determined as an internal normalization control. (B) GBM neurosphere cells were treated as in A and the expression levels of LIF were determined by means of qRT-PCR as in A. (C) GBM neurospheres were incubated with 100 pM TGFβ1 and/or 2 μM TβRI inhibitor for 3 hours in medium without serum and the mRNA levels of LIF were determined by means of qRT-PCR as in A. (D) GBM1 neurospheres were incubated with 100 pM TGFβ1, TGFβ2 and TGFβ3 for 3 hours in medium without serum and the mRNA levels of LIF were determined by means of qRT-PCR as in A. (E) The levels of LIF protein secreted were determined by means of ELISA in GBM1 neurospheres after 48 hours of treatment with 100 pM TGFβ1.
For the quantitative determination of the levels of LIF protein secreted to the medium, the human LIF ELISA kit (R&D Systems) was used, following the manufacturer's specifications. […]
It was decided to investigate the molecular mechanisms responsible for the effect of TGFβ on GICs. […] A panel of PCTCs derived from 11 different human GBMs was treated with TGFβ for 3 hours and the levels of LIF mRNA were determined.

[3] = test system: human LIF promoter; experiment: LIF promoter luciferase reporter assay; assay type: cell-based; conditions: U373MG cells as printed; 100 pM TGFβ1, 20 hours
Protocol: FIG. 4. TGFβ induces the transcription of LIF through an activated Smad complex. (A) Diagrams of the indicator constructs of luciferase LIF. (B) A172 glioma cells were transfected with indicator constructs of luciferase LIF (−634/+32), (−276/+32), (−276/+32) mutSBE or (−73/+32). 16 hours after transfection, the cells were treated with 100 pM TGFβ1 for 20 hours and were analyzed for luciferase activity. (C) U373MG cells were treated with 100 pM TGFβ1 for 3 hours, and ChIP assays were performed with the indicated antibodies and the PCR primers indicated. (D, E) The levels of LIF were determined by means of qRT-PCR analysis in U373MG (D) or GEM neurospheres (E) treated with 100 pM TGFβ1 for 3 hours after silencing mediated by siRNA of the indicated members of the indicated Smad family. Western blotting was performed using antibodies specific for Smads or qRT-PCR of Smad4. The β-actin was determined as an internal normalization control.
Genomic DNA of U373MG was used to amplify the −634/+32 region of the human LIF promoter which was cloned into the pGL2-basic luciferase vector. The deletion constructs (−267/+32), and (−73/+32) were generated by means of digestion of the construct (−634/+32). Two point mutations were introduced in positions −183 bp and −184 bp in the construct (−267/+32) to interrupt the Smad binding element (SBE) and generate the construct (−267/+32) mutSBE. […]

transactivation of LIF promoter reporter constructs (−634/+32 and −276/+32) [3]: capable of transactivating
Substance: TGFβ: TGFβ1 (R&D Systems), used at 100 pM according to the figure legends
induction of LIF in mouse neuroprogenitors [1]: did not induce LIF
secretion of the LIF protein (ELISA, conditioned neurosphere medium) [2]: increase in the secretion of the LIF protein
